These results are taken from US20240058450A1, “BCL-XL Inhibitory Compounds Having Low Cell Permeability and Antibody Drug Conjugates Including the Same” (AbbVie Inc., priority 2014, published 2024).

Test [1] deals with Molt-4 human acute lymphoblastic leukemia cells. The test is described as follows: Molt-4 cell viability assay (CellTiter-Glo, 48 hours, 10% HS). The following applies: non-permeabilized cells. The class given is cell-based. An outline of the steps:
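Cells were seeded at 12,500 per well in medium with 10% human serum and exposed to a 3-fold compound dilution series from 10 μM to 0.0005 μM. After 48 h, viable cells were quantified by CellTiter-Glo luminescence. Each concentration was run in duplicate on at least 3 occasions.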

For the next test, the target named is Bcl-xL (Homo sapiens, UniProt Q07817). The test is described as follows: Time Resolved-Fluorescence Resonance Energy Transfer (TR-FRET) binding assay, competition with probe F-Bak. In short, it runs like this:
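TR-FRET binding assay run at room temperature for 2 h after mixing compound with Bcl-xL protein, F-Bak probe and Tb-labelled antibody. Test compounds diluted from a 2× 50 μM stock. Ki values derived via Wang's equation from 520/495 nm emission under 340 nm excitation, in the absence of serum or with 1% HS.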

For test [2], the system named is permeabilized Bcl-xL dependent Molt-4 cells. Put plainly: Cytochrome C release in selectively (digitonin) permeabilized Molt-4 cells. The class given is cell-based, human. To be noted: 4 h treatment, read-out: Molt-4 Permeabilized Cyt C Release. From the text: The permeabilization of the mitochondrial outer membrane to release proteins from the intermembrane space into the cytosol is a pivotal event in the process of apoptosis. Specifically, the release of cytochrome C triggers the formation of the apoptosome which, in turn, results in caspase activation and other events that will commit the cell to undergo programmed cell death (Goldstein el al., 2005, Cell Death and Differentiation 12:453). The process of mitochondrial outer membrane permeabilization (MOMP) is controlled by the Bcl-2 family members. It is promoted by the multidomain pro-apoptotic proteins Bax and Bak which, upon activation, oligomerize on the outer mitochondrial membrane and form pores to ultimately release cytochrome C. This action is antagonized by the antiapoptotic members, including Bcl-2 and Bcl-xL. Compounds that are capable of inhibiting Bcl-2 or Bcl-xL, for example, in cells that depend upon these proteins for survival, can cause activation of Bax and or Bak, MOMP, release of cytochrome C and the mentioned downstream steps in the apoptotic process. This process of cytochrome C release can be measured in cells via Western blot of both mitochrondrial and cytosolic fractions, and can be used a proxy measurement of apoptosis in cells.
As a means of detecting the ability of a Bcl-xL inhibitor with low cell-permeability to cause release of cytochrome C, the cells can be treated with an agent that causes selective pore formation in the plasma membrane, but not the mitochondrial membrane. Specifically, the cholesterol/phospholipid ratio is much higher in the plasma membrane than the mitochondrial membrane. […] This agent forms insoluble complexes with cholesterol leading to the segregation of cholesterol from its normal phospholipid binding sites. This action, in turn, leads to the formation of holes about 40-50 Å wide in the lipid bilayer. Once the plasma membrane is permeabilized, cytosolic components able to pass over digitonin-formed holes can be washed out, including the cytochrome C that was released from mitochondria to cytosol in the apoptotic cells ((Campos, 2006, Cytometry A 69(6):515-523)).
To determine if Bcl-xL inhibitors were inducing cell death through apoptosis, cytochrome C release was measured in Bcl-xL dependent Molt-4 cells following treatment Specifically, 1×10^6 cells were treated for 4 h (37° C., 5% CO2) with the test compounds in half-log dilutions starting at 3.0 μM and ending at 0.01 μM. Cells were then processed as described in Chen et al., 2011, Mol. Cancer Ther. 10:2340-2350 (the Bcl-2/Bcl-X(L)/Bcl-w inhibitor, navitoclax, enhances the activity of chemotherapeutic agents in vitro and in vivo.).

Where [3] appears, read: in the presence of 1% HS, read-out: Bcl-xL Binding Ki (nM, 1% HS).
Where [4] appears, read: without HS, read-out: Bcl-xL Binding Ki.

Where two headings read alike, the source gives them in different places. A value given as a limit tells only on which side of the number the result lay.

Sequence of Bcl-xL (Q07817 whole entry): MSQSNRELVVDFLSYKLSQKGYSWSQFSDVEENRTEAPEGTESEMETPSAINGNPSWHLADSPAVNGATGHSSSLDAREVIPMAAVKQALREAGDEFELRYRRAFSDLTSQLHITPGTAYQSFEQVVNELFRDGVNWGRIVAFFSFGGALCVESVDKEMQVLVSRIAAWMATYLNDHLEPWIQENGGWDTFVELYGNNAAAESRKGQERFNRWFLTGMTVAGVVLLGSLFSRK

As to `Cc1c(-c2ccc(N3CCc4c(OCCN)ccc(C(=O)Nc5nc6ccccc6s5)c4C3)nc2C(=O)O)cnn1CC12CC3(C)CC(C)(C1)CC(OCCN(C)CCS(=O)(=O)O)(C3)C2` [Example 1.46, 6-[5-(2-aminoethoxy)-8-(1,3-benzothiazol-2-ylcarbamoyl)-3,4-dihydroisoquinolin-2 (1H)-yl]-3-{1-[(3,5-dimethyl-7-{2-[methyl(2-sulfoethyl)amino]ethoxy}tricyclo[3.3.1.1^3,7]dec-1-yl)methyl]-5-methyl-1H-pyrazol-4-yl}pyridine-2-carboxylic acid], the EC50 in test [1] (Homo sapiens, MOLT-4, 48 h) is 68 nM; in test [2] (Homo sapiens, MOLT-4, 4 h) it was below 0.5 nM. For the same compound, the Ki – broadly, the equilibrium dissociation constant of an inhibitor or competing ligand from its target – was 0.00615 nM on Bcl-xL (setting [3]) and below 0.001 nM at Bcl-xL (setting [4]).

`Cc1c(-c2ccc(N3CCc4cccc(C(=O)Nc5nc6ncccc6s5)c4C3)nc2C(=O)O)cnn1CC12CC3(C)CC(C)(C1)CC(OCCNCCCP(=O)(O)O)(C3)C2` [Example 1.39, 3-{1-[(3,5-dimethyl-7-{2-[(3-phosphonopropyl)amino]ethoxy}tricyclo[3.3.1.1^3,7]dec-1-yl)methyl]-5-methyl-1H-pyrazol-4-yl}-6-[8-([1,3]thiazolo[4,5-b]pyridin-2-ylcarbamoyl)-3,4-dihydroisoquinolin-2 (1H)-yl]pyridine-2-carboxylic acid]: the EC50 in test [1] (Homo sapiens, MOLT-4, 48 h) is 1590 nM; in test [2] (Homo sapiens, MOLT-4, 4 h), below 0.5 nM. Besides, the Ki at Bcl-xL (setting [3]) was 0.174 nM; on Bcl-xL (setting [4]), 0.018 nM.

In the case of `Cc1c(-c2ccc(N3CCc4cccc(C(=O)Nc5nc6ccccc6s5)c4C3)nc2C(=O)O)cnn1CC12CC3(C)CC(C)(C1)CC(OCCN(CCCP(=O)(O)O)C1CCNCC1)(C3)C2` [Example 1.26, 6-[8-(1,3-benzothiazol-2-ylcarbamoyl)-3,4-dihydroisoquinolin-2 (1H)-yl]-3-{1-[(3,5-dimethyl-7-{2-[(3-phosphonopropyl)(piperidin-4-yl)amino]ethoxy}tricyclo[3.3.1.1^3,7]dec-1-yl)methyl]-5-methyl-1H-pyrazol-4-yl}pyridine-2-carboxylic acid], the EC50 in test [1] (Homo sapiens, MOLT-4, 48 h) is 2330 nM; in test [2] (Homo sapiens, MOLT-4, 4 h), below 0.5 nM. Besides, the results for the Ki on Bcl-xL (setting [3]) and on Bcl-xL (setting [4]) were 0.11 nM and below 0.001 nM, respectively.

In the case of `Cc1c(-c2ccc(N3CCc4cccc(C(=O)Nc5nc6ccccc6s5)c4C3)nc2C(=O)O)cnn1CC12CC3(C)CC(C)(C1)CC(OCCN(CCOCCOCCN)Cc1ccc(CC4O[C@H](C(=O)O)[C@@H](O)[C@H](O)[C@H]4O)cc1)(C3)C2` (stereo partly drawn) [Example 1.18, 6-{4-[({2-[2-(2-aminoethoxy)ethoxy]ethyl}[2-({3-[(4-{6-[8-(1,3-benzothiazol-2-ylcarbamoyl)-3,4-dihydroisoquinolin-2 (1H)-yl]-2-carboxypyridin-3-yl}-5-methyl-1H-pyrazol-1-yl)methyl]-5,7-dimethyltricyclo[3.3.1.1^3,7]dec-1-yl}oxy)ethyl]amino)methyl]benzyl}-2,6-anhydro-L-gulonic acid], the EC50 is 3330 nM in test [1]; below 0.5 nM in test [2]; 1 to 5 nM in test [2] (Homo sapiens, MOLT-4, 4 h). Also, the Ki was 1.38 nM at Bcl-xL (setting [3]) and below 0.001 nM on Bcl-xL (setting [4]).

Regarding `Cc1c(-c2ccc(N3CCc4cccc(C(=O)Nc5nc6ccccc6s5)c4C3)nc2C(=O)O)cnn1CC12CC3(C)CC(C)(C1)CC(OCCNCCCS(=O)(=O)O)(C3)C2` [Example 1.5, 6-[8-(1,3-benzothiazol-2-ylcarbamoyl)-3,4-dihydroisoquinolin-2 (1H)-yl]-3-{1-[(3,5-dimethyl-7-{2-[(3-sulfopropyl)amino]ethoxy}tricyclo[3.3.1.1^3,7]dec-1-yl)methyl]-5-methyl-1H-pyrazol-4-yl}pyridine-2-carboxylic acid], the EC50 in test [1] (Homo sapiens, MOLT-4, 48 h) was 189 nM; in test [2] (Homo sapiens, MOLT-4, 4 h), 0.5 to 1 nM. Also, the inhibition constant (Ki) at Bcl-xL (setting [3]) is 0.26 nM; on Bcl-xL (setting [4]) it was 0.019 nM.

For the compound `Cc1c(-c2ccc(N3CCc4cccc(C(=O)Nc5nc6ccccc6s5)c4C3)nc2C(=O)O)cnn1CC12CC3(C)CC(C)(C1)CC(OCCNC(=O)[C@@H](N)CS(=O)(=O)O)(C3)C2` [Example 1.15, 6-[8-(1,3-benzothiazol-2-ylcarbamoyl)-3,4-dihydroisoquinolin-2 (1H)-yl]-3-{1-[(3,5-dimethyl-7-{2-[(3-sulfo-L-alanyl)amino]ethoxy}tricyclo[3.3.1.1^3,7]dec-1-yl)methyl]-5-methyl-1H-pyrazol-4-yl}pyridine-2-carboxylic acid], the EC50 was 663 nM in test [1] (Homo sapiens, MOLT-4, 48 h) and 1 to 5 nM in test [2] (Homo sapiens, MOLT-4, 4 h). In addition, the inhibition constant Ki at Bcl-xL (setting [3]) came to 0.39 nM; at Bcl-xL (setting [4]), 0.003 nM.

Regarding `Cc1c(-c2ccc(-c3ccc4c(c3)N(C(=O)Nc3nc5ccccc5s3)CCC4)nc2C(=O)O)cnn1CC12CC3(C)CC(C)(C1)CC(OCCNCCS(=O)(=O)O)(C3)C2` [Example 1.24, 6-[1-(1,3-benzothiazol-2-ylcarbamoyl)-1,2,3,4-tetrahydroquinolin-7-yl]-3-{1-[(3,5-dimethyl-7-{2-[(2-sulfoethyl)amino]ethoxy}tricyclo[3.3.1.1^3,7]dec-1-yl)methyl]-5-methyl-1H-pyrazol-4-yl}pyridine-2-carboxylic acid], the EC50 in test [1] (Homo sapiens, MOLT-4, 48 h) was 390 nM; in test [2] (Homo sapiens, MOLT-4, 4 h), below 0.5 nM. In addition, the Ki on Bcl-xL (setting [3]) is 0.074 nM; on Bcl-xL (setting [4]), below 0.001 nM.

As for `Cc1c(-c2ccc(N3CCc4cccc(C(=O)Nc5nc6cccnc6s5)c4C3)nc2C(=O)O)cnn1CC12CC3(C)CC(C)(C1)CC(OCCNCCS(=O)(=O)O)(C3)C2` [Example 1.22, 3-{1-[(3,5-dimethyl-7-{2-[(2-sulfoethyl)amino]ethoxy}tricyclo[3.3.1.1^3,7]dec-1-yl)methyl]-5-methyl-1H-pyrazol-4-yl}-6-[8-([1,3]thiazolo[5,4-b]pyridin-2-ylcarbamoyl)-3,4-dihydroisoquinolin-2 (1H)-yl]pyridine-2-carboxylic acid], the EC50 in test [1] (Homo sapiens, MOLT-4, 48 h) was above 10000 nM; in test [2] (Homo sapiens, MOLT-4, 4 h) it was below 0.5 nM. For the same compound, the Ki came out at 7.11 nM at Bcl-xL (setting [3]) and 0.006 nM on Bcl-xL (setting [4]).

With `Cc1c(-c2ccc(N3CCc4c(OCCNCCC(=O)O)ccc(C(=O)Nc5nc6ccccc6s5)c4C3)nc2C(=O)O)cnn1CC12CC3(C)CC(C)(C1)CC(OCCN(C)CCS(=O)(=O)O)(C3)C2` [Example 1.49, 6-[8-(1,3-benzothiazol-2-ylcarbamoyl)-5-{2-[(2-carboxyethyl)amino]ethoxy}-3,4-dihydroisoquinolin-2 (1H)-yl]-3-{1-[(3,5-dimethyl-7-{2-[methyl(2-sulfoethyl)amino]ethoxy}tricyclo[3.3.1.1^3,7]dec-1-yl)methyl]-5-methyl-1H-pyrazol-4-yl}pyridine-2-carboxylic acid], the EC50 in test [1] (Homo sapiens, MOLT-4, 48 h) is 92 nM; in test [2] (Homo sapiens, MOLT-4, 4 h) it was below 0.5 nM.

In the case of `Cc1c(-c2ccc(N3CCc4cccc(C(=O)Nc5nc6ccccc6s5)c4C3)nc2C(=O)O)cnn1CC12CC3(C)CC(C)(C1)CC(OCCOCCNCc1ccc(O[C@@H]4O[C@H](CO)[C@@H](O)[C@@H](O)[C@H]4O)cc1)(C3)C2` [Example 1.10, 3-[1-({3-[2-(2-{[4-(beta-D-allopyranosyloxy)benzyl]amino}ethoxy)ethoxy]-5,7-dimethyltricyclo[3.3.1.1^3,7]dec-1-yl}methyl)-5-methyl-1H-pyrazol-4-yl]-6-[8-(1,3-benzothiazol-2-ylcarbamoyl)-3,4-dihydroisoquinolin-2 (1H)-yl]pyridine-2-carboxylic acid], the EC50 in test [1] (Homo sapiens, MOLT-4, 48 h) is 74 nM; in test [2] (Homo sapiens, MOLT-4, 4 h) it was below 0.5 nM. The Ki on Bcl-xL (setting [3]) is 0.027 nM; at Bcl-xL (setting [4]) it was below 0.001 nM.

Take `Cc1c(-c2ccc(N3CCc4cccc(C(=O)Nc5nc6ccccc6s5)c4C3)nc2C(=O)O)cnn1CC12CC3(C)CC(C)(C1)CC(OCCNC(=O)[C@H](CC(=O)O)NCCC(=O)O)(C3)C2` [Example 1.32, 6-[8-(1,3-benzothiazol-2-ylcarbamoyl)-3,4-dihydroisoquinolin-2 (1H)-yl]-3-(1-{[3-(2-{[N-(2-carboxyethyl)-L-alpha-aspartyl]amino}ethoxy)-5,7-dimethyltricyclo[3.3.1.1^3,7]dec-1-yl]methyl}-5-methyl-1H-pyrazol-4-yl}pyridine-2-carboxylic acid]: the EC50 in test [1] (Homo sapiens, MOLT-4, 48 h) was 708 nM; in test [2] (Homo sapiens, MOLT-4, 4 h), below 0.5 nM. The Ki on Bcl-xL (setting [3]) is 0.28 nM; at Bcl-xL (setting [4]), below 0.001 nM.
